Activity calls are given as the source filed them. The calls are words filed in the database; no cut-off is given here.
What was measured:
[1] = Metabolic stability in human liver microsomes assessed as half life at 1 uM incubated for 60 mins by LC-MS/MS analysis; format: ADME, Microsome
[2] = biological target: T1, Structural capsid protein (Human immunodeficiency virus 1, UniProt Q76129); test: Binding affinity to monomeric HIV-1 NL4.3 capsid protein assessed as dissociation constant by SPR assay
T1 sequence (Q76129 whole entry): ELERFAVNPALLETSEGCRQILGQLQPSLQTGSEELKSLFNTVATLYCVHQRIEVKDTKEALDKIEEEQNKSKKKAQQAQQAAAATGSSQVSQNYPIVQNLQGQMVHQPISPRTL

[3] = tested on: Human immunodeficiency virus 2; test: Anti-HIV activity against HIV-2 ROD infected in human MT-4 cells assessed as protection against virus-induced cytopathic effect incubated for 5 days by spectrophotometric based MTT assay; format: functional, organism-based; conditions: Human immunodeficiency virus 2, ROD, MT4, 120 h
[4] = Metabolic stability in human liver microsomes assessed as intrinsic clearance at 1 uM incubated for 60 mins by LC-MS/MS analysis; format: ADME, Microsome; conditions: read-out: CLH
[5] = Selectivity ratio of EC50 for wild type HIV-1 IIIB infected in human MT4 cells to EC50 for HIV-2 ROD infected in human MT-4 cells assessed as protection against virus-induced cytopathic effect incubated for 5 days by spectrophotometric based MTT assay; format: functional; conditions: time 5 day
[6] = biological target: Human immunodeficiency virus type 1 reverse transcriptase (Human immunodeficiency virus 1) (UniProt Q72547); test: Inhibition of HIV1 reverse transcriptase at 24 nM incubated for 1 hr by ELISA analysis
[7] = biological target: Structural capsid protein (Human immunodeficiency virus 1) (UniProt Q76129); test: Binding affinity to HIV-1 hexameric capsid protein assessed as reduction in CPSF6 binding to capsid protein by competition assay based SPR analysis; conditions: filed as modulator
Sequence of Structural capsid protein (Human immunodeficiency virus 1) (Q76129 as listed by the source): as the sequence (Q76129 whole entry) above

[8] = tested on: Human immunodeficiency virus 1; test: Antiviral activity against pseudotyped HIV-1 expressing luciferase-reporter transfected in HEK293T cells assessed as viral inhibition at late stage incubated for 48 hrs by Single-round infection assay; format: functional, organism-based
[9] = Selectivity index, ratio of CC50 for human MT4 cells to EC50 for HIV-2 ROD infected in human MT-4 cells; format: toxicity, cell-based; conditions: read-out: Selectivity Index
[10] = Selectivity index, ratio of CC50 for human MT4 cells to EC50 for wild type HIV-1 IIIB infected in human MT4 cells; format: toxicity, cell-based; conditions: read-out: Selectivity Index
[11] = tested on: Human immunodeficiency virus 1; test: Antiviral activity against pseudotyped HIV-1 expressing luciferase-reporter transfected in HEK293T cells assessed as viral inhibition at early stage incubated for 48 hrs by Single-round infection assay; format: functional, organism-based
MT4 = test: Cytotoxicity against human MT4 cells assessed as reduction in cell viability incubated for 5 days by spectrophotometric based MTT assay; format: functional; conditions: MT4, 120 h, time 5 day
[12] = biological target: Structural capsid protein (Human immunodeficiency virus 1) (UniProt Q76129); test: Binding affinity to HIV-1 hexameric capsid protein assessed as reduction in NUP153 binding to capsid protein by competition assay based SPR analysis; conditions: filed as modulator
[13] = biological target: T1, Structural capsid protein; test: Binding affinity to hexameric HIV-1 NL4.3 capsid protein assessed as dissociation constant by SPR assay
[14] = tested on: Human immunodeficiency virus 1; test: Anti-HIV activity against wild type HIV-1 IIIB infected in human MT4 cells assessed as protection against virus-induced cytopathic effect incubated for 5 days by spectrophotometric based MTT assay; format: functional, organism-based; conditions: Human immunodeficiency virus 1, IIIB, MT4, 120 h
[15] = tested on: Human immunodeficiency virus 1; test: Antiviral activity against pseudotyped HIV-1 expressing luciferase-reporter transfected in HEK293T cells assessed as increase in p24 level in progeny virions by ELISA analysis; format: functional, organism-based

Row | SMILES | half-life at 1 µM [1] [h] | Kd [2] [nM] | EC50 [3] [nM] | CLint scaled at 1 µM [4] [mL/min/kg] | Ratio EC50 [5] | inhibition [6] | Activity [7] | Activity [8] | selectivity ratio [9] | selectivity ratio [10] | Activity [11] | CC50 (MT4) [nM] | Activity [12] | Kd [13] [nM] | EC50 [14] [nM] | Activity [15]
1 | CN(C(=O)[C@H](Cc1cc(F)cc(F)c1)NC(=O)Cc1c[nH]c2ccc(N)cc12)c1ccc2scnc2c1 | 1.14 | 196 | 231 | 20.2 | 0.05 | inactive | Active | Active | 831 | 16100 | Active | 192000 | Active | 94.5 | 11.9 | inactive
2 | CN(C(=O)[C@H](Cc1cc(F)cc(F)c1)NC(=O)Cc1c[nH]c2cccc(F)c12)c1ccc2scnc2c1 |  |  | 498 |  | 0.11 |  |  |  | 47.3 | 439 |  | 23500 |  |  | 53.6 | 
3 | COc1ccc2[nH]c(C)c(CC(=O)N[C@@H](Cc3cc(F)cc(F)c3)C(=O)N(C)c3ccc4scnc4c3)c2c1 |  |  | 365 |  | 0.09 |  |  |  | 81 | 900 |  | 29500 |  |  | 32.8 | 
4 | CN(C(=O)[C@H](Cc1cc(F)cc(F)c1)NC(=O)Cc1c[nH]c2ccc(Br)cc12)c1ccc2scnc2c1 |  |  | 171 |  | 0.19 |  |  |  | 137 | 718 |  | 23400 |  |  | 32.6 | 
5 | CN(C(=O)[C@H](Cc1cc(F)cc(F)c1)NC(=O)Cc1c[nH]c2ccc(Cl)cc12)c1ccc2scnc2c1 |  |  | 158 |  | 0.1 |  |  |  | 150 | 1450 |  | 23700 |  |  | 16.3 | 
6 | Cc1[nH]c2ccc(F)cc2c1CC(=O)N[C@@H](Cc1cc(F)cc(F)c1)C(=O)N(C)c1ccc2scnc2c1 |  |  | 745 |  | 0.23 |  |  |  | 33.4 | 147 |  | 24900 |  |  | 170 | 
7 | COC(=O)c1c(C)ccn1CC(=O)N[C@@H](Cc1cc(F)cc(F)c1)C(=O)N(C)c1ccc2scnc2c1 |  |  | 1920 |  | 0.53 |  |  |  | 66.3 | 124 |  | 127000 |  |  | 1030 | 
8 | CN(C(=O)[C@H](Cc1cc(F)cc(F)c1)NC(=O)Cc1c[nH]c2cccc(Br)c12)c1ccc2scnc2c1 |  |  | 1080 |  | 0.15 |  |  |  | 20.5 | 133 |  | 22200 |  |  | 166 | 
9 | CN(C(=O)[C@H](Cc1cc(F)cc(F)c1)NC(=O)Cc1c[nH]c2cc(Br)ccc12)c1ccc2scnc2c1 |  |  | 68.6 |  | 0.4 |  |  |  | 339 | 848 |  | 23300 |  |  | 27.4 | 
10 | CN(C(=O)[C@H](Cc1cc(F)cc(F)c1)NC(=O)C(=O)c1c[nH]c2ccccc12)c1ccc2scnc2c1 |  |  | > 23600 |  |  |  |  |  | < 0.01 | < 0.01 |  | 23600 |  |  | > 23600 | 
11 | CN(C(=O)[C@H](Cc1cc(F)cc(F)c1)NC(=O)Cc1c[nH]c2cc(F)ccc12)c1ccc2scnc2c1 |  |  | 165 |  | 0.1 |  |  |  | 153 | 1500 |  | 25200 |  |  | 16.8 | 
12 | Cc1[nH]c2ccc(Cl)cc2c1CC(=O)N[C@@H](Cc1cc(F)cc(F)c1)C(=O)N(C)c1ccc2scnc2c1 |  |  | 633 |  | 0.31 |  |  |  | 41.7 | 133 |  | 26400 |  |  | 199 | 
13 | Cc1cc(C(F)(F)F)nn1CC(=O)N[C@@H](Cc1cc(F)cc(F)c1)C(=O)N(C)c1ccc2scnc2c1 |  |  | 912 |  | 0.24 |  |  |  | 133 | 543 |  | 121000 |  |  | 223 | 

— ChEMBL document CHEMBL6083251, “"Pseudosubstrate Envelope"/Free Energy Perturbation-Guided Design and Mechanistic Investigations of Benzothiazole HIV Capsid Modulators with High Ligand Efficiency” (J Med Chem, 2024)
